Calls of active or inactive are those of the source. For most assays here, no stated cut-off is given here; in the data, active = IC50 of 10 µM or less and inactive = more. Some results are limits rather than exact numbers.

As a reminder, the AC50 is the midpoint of the concentration-response curve, whichever way the signal moves. A word on the EC50: it is the midpoint of the concentration-response curve.

For assay [1], the target named is T1, High affinity choline transporter 1 (Homo sapiens, UniProt Q9GZV3).
T1 sequence (Q9GZV3 whole entry): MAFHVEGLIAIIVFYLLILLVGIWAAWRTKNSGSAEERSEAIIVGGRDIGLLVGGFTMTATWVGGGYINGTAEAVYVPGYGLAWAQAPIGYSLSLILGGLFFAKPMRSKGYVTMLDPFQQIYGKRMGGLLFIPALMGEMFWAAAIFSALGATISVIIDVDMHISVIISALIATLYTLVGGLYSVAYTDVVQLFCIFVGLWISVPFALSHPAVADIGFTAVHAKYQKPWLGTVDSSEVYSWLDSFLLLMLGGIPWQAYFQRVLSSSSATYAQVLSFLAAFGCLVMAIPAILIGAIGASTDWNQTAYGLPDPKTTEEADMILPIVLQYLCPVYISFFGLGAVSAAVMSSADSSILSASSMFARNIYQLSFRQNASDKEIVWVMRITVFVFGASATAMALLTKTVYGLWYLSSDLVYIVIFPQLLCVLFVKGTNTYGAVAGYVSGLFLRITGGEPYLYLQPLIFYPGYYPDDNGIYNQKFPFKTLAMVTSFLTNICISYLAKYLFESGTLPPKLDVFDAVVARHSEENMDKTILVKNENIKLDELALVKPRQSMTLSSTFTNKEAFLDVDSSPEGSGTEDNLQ
Nature of the assay: human choline transporter blockers, potency – cell-based, 5-point CRC, membrane potential dye, dose response (AID 504840). It counts as functional.

The target of assay [2] is T2, Interleukin-8 (Homo sapiens, UniProt P10145).
T2 sequence (P10145 whole entry): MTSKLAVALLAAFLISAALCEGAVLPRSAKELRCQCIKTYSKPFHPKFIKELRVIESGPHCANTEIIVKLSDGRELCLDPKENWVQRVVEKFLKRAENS
Nature of the assay: Dose Response confirmation of uHTS small molecule hits for cystic fibrosis induced NFkb Inhibitors in a PAF-induced IL8 counterscreen. It counts as functional. The note with it: read-out: IC50_Mean. (In general: Counterscreens check selectivity or assay interference.)

For assay [3], the target named is T3, Microphthalmia-associated transcription factor (Homo sapiens, UniProt O75030).
T3 sequence (O75030 whole entry): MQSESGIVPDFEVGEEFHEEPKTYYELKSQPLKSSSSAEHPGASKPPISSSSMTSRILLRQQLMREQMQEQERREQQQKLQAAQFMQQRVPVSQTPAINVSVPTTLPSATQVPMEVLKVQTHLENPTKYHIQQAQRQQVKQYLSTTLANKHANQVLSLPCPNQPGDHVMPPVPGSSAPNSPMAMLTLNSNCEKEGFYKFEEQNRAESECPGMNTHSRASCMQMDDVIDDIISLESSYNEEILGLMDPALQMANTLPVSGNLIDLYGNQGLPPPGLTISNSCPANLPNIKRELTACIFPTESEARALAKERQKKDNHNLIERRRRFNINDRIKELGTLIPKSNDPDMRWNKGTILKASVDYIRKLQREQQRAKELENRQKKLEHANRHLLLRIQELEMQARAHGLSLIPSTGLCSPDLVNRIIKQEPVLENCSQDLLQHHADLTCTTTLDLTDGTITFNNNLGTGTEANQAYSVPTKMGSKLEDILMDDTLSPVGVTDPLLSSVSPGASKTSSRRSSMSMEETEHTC
The experiment in a line: reducers of TRPM1 reporter luminescence, concentration series – cell-based, SK-MEL-5, cherry-picked, set 3, MITF inhibitor project, dose response (AID 493073).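 Further: SK-MEL-5 melanoma cells with luciferase driven by the MITF target TRPM1 promoter.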 It is filed as functional.

In assay [4] the target is T2, Interleukin-8. The experiment in a line: Dose Response confirmation of uHTS small molecule hits for cystic fibrosis induced NFkb Inhibitors in a TNFa-induced IL8 counterscreen. The note with it: read-out: IC50_Mean. It counts as functional.
Assay [5] addresses Sphingosine 1-phosphate receptor 4 (Homo sapiens, UniProt O95977). Nature of the assay: Fluorescence dose response cell-based high throughput screening assay for antagonists of the Sphingosine 1-Phosphate Receptor 4 (S1P4). [Related pubchem assays: 1524 (Confirmation in triplicates.), 1510 (Primary screen.)]. It is filed as functional.
Assay [6] deals with Sphingosine 1-phosphate receptor 1 (Homo sapiens, UniProt P21453). It is filed as functional.
The target in assay [7] is T4, Estrogen receptor (Homo sapiens, UniProt P03372).
T4 sequence (P03372 whole entry): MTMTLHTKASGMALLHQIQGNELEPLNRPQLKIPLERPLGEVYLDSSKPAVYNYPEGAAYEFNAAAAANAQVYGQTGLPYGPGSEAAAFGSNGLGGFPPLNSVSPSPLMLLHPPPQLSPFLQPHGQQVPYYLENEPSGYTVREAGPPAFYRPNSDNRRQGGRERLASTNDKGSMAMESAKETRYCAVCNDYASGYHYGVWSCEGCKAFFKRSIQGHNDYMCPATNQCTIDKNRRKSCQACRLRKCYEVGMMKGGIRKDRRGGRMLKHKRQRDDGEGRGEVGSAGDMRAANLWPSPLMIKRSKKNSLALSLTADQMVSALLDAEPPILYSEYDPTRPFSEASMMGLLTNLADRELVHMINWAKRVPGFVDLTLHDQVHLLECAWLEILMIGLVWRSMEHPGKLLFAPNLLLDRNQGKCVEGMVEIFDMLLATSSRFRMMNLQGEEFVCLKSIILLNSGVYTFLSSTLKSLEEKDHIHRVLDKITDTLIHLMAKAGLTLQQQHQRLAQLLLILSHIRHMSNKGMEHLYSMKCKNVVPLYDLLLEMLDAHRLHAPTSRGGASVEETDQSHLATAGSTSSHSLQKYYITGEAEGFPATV
The experiment in a line: ERα coactivator recruitment enhancers – biochemical, TR-FRET, ERα LBD, dose response (AID 737). A general note: TR-FRET usually uses a lanthanide donor and a delayed reading to cut background.

In assay [8] the target is T5, Neuropeptide Y receptor type 2 (Homo sapiens, UniProt P49146).
T5 sequence (P49146 whole entry): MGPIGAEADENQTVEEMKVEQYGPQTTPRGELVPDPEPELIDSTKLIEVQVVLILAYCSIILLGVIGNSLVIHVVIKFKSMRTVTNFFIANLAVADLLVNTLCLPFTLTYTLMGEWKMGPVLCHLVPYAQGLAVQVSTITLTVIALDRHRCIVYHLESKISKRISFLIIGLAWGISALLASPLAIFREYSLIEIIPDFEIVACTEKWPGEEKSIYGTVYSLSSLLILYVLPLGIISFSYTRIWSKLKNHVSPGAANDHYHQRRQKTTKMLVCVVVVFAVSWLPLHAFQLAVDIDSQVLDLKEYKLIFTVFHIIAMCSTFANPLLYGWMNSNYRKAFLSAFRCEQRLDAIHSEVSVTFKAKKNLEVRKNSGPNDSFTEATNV
The experiment in a line: IC50 for human NPY-Y2 blockade – cell-based, counter-screen for NPY-Y1 antagonist project, dose response (AID 1278). It counts as functional.

Assay [9] has as its target Melanin-concentrating hormone receptor 1 (Homo sapiens, UniProt Q99705). Nature of the assay: Fluorescence-based counterscreen for antagonists of the G-protein coupled receptor 7 (GPR7): cell-based high throughput dose response assay to identify antagonists of the melanin-concentrating hormone receptor 1 (MCHR1). It is filed as functional.
In assay [10] the target is T6, Neuropeptides B/W receptor type 1 (Homo sapiens, UniProt P48145).
T6 sequence (P48145 whole entry): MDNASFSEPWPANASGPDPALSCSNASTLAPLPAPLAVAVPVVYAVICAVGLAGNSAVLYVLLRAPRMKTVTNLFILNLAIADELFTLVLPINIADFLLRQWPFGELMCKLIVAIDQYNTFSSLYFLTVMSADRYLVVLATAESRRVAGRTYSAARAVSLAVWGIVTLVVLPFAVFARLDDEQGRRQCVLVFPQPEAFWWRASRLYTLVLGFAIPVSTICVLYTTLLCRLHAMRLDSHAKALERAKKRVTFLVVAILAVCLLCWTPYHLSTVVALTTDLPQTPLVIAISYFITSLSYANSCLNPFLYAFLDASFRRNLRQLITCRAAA
The experiment in a line: Fluorescence-based dose response cell-based high throughput screening assay to identify antagonists of the G-protein coupled receptor 7 (GPR7). [Related pubchem assays: 1952 (Screening assay (GPR7 antagonists).), 1880 (Summary AID.)]. It is filed as functional.

The target of assay [11] is T7, Neuropeptide Y receptor type 1 (Homo sapiens, UniProt P25929).
T7 sequence (P25929 whole entry): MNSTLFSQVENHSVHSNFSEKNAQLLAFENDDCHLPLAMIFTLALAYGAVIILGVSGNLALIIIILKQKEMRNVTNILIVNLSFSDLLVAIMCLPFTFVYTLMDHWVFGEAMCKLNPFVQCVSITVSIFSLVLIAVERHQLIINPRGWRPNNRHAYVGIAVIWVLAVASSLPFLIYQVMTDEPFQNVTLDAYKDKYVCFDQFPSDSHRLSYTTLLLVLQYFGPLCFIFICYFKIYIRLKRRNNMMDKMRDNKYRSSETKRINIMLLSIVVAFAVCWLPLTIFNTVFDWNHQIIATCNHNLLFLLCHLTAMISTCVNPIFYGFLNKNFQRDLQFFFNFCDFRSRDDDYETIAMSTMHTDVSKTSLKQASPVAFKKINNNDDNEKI
The experiment in a line: IC50 of human NPY-Y1 blockers – cell-based, dose response (AID 1277). It counts as functional.

Sphingosine 1-phosphate receptor 1, sequence (P21453 whole entry): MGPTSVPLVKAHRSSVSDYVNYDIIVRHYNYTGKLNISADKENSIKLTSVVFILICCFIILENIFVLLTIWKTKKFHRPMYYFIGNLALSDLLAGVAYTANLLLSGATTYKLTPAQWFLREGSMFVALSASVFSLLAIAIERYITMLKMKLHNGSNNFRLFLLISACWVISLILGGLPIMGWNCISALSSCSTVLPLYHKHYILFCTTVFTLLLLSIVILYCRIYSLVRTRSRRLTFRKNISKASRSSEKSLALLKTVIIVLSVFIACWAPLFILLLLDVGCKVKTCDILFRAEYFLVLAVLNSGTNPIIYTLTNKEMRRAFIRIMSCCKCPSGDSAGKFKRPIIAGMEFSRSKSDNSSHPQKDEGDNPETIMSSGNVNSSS
Melanin-concentrating hormone receptor 1, sequence (Q99705 whole entry): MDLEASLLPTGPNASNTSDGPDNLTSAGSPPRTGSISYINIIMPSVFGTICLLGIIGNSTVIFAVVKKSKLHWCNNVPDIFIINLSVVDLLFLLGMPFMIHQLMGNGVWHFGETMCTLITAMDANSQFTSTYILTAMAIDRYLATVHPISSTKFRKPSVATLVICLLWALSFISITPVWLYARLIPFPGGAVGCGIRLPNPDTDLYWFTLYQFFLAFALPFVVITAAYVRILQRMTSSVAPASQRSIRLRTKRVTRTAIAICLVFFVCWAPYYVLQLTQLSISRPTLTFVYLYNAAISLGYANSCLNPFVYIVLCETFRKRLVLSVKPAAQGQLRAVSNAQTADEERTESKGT
Sphingosine 1-phosphate receptor 4, sequence (O95977 whole entry): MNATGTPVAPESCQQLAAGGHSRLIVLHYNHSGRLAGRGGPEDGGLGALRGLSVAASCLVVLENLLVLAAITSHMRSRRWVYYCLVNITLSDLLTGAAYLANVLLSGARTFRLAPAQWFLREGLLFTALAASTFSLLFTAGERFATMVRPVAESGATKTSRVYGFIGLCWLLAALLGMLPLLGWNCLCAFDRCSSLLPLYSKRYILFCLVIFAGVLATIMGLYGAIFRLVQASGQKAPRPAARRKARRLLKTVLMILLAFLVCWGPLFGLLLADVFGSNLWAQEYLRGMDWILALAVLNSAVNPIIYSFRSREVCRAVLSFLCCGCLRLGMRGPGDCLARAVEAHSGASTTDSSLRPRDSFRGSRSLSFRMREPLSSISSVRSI

As for `CN(CCC#N)C(=O)COC(=O)c1ccccc1C(=O)c1ccc(Cl)c([N+](=O)[O-])c1`, the IC50 is 7.81 µM (active) in assay [1]; 0.967 µM (active) in [2]; 43 µM (inactive) in assay [4]; 2.34 µM (active) in assay [5]; 9.72 µM (active) in [6]. The AC50 in [3] was 10.9 µM (active).

For `O=C1c2ccccc2C(=O)N1CCCc1nc2ccccc2c(=O)n1CCCn1ccnc1`, the EC50 in assay [7] is 23.5 µM (active).

For the compound `COc1ccc(-c2noc(CN3CCCCC3c3nccn3C)n2)cc1` (stereo unspecified), the IC50 in assay [8] is given as > 35 µM (not active); in assay [9], > 43.8 µM (not active); in assay [10], > 43.8 µM (not active); in assay [11], > 35 µM (not active).

Source of the values: ChEMBL document CHEMBL1201862, “PubChem BioAssay data set” (2004).
